Structures are written as SMILES.

The values that follow come from patent publication US20060004070A1, “Fungicidal active substance combinations” (priority 2002, published 2006).

The test system of one test is Puccinia recondita. Description: Puccinia test (wheat)/curative. It counts as in vivo. Conditions: curative spray 48 hours after inoculation, application rate 25 g/ha, evaluation 10 days after inoculation. Here is the method:
Puccinia test (wheat)/curative
Solvent: 25 parts by weight of N,N-dimethylacetamide
Emulsifier: 0.6 part by weight of alkylaryi polyglycol ether
To produce a suitable preparation of active compound, 1 part by weight of active compound combination is mixed with the stated amounts of solvent and emulsifier, and the concentrate is diluted with water to the desired concentration.
To test for curative activity, young plants are inoculated with a spore suspension of Puccinia recondita in a 0.1% strength aqueous agar solution. 48 hours after the inoculation, the plants are sprayed with the preparation of active compound at the stated application rate.
The plants are placed in a greenhouse at a temperature of about 20° C. and a relative atmospheric humidity of about 80% to promote the development of rust pustules.
Evaluation is carried out 10 days after the inoculation. 0% means an efficacy which corresponds to that of the control, whereas an efficacy of 100% means that no infection is observed.

A further test concerns Leptosphaeria nodorum. Briefly: Leptosphaeria nodorum test (wheat)/protective. It is filed as in vivo. The following applies: protective spray, application rate 100 g/ha, evaluation 10 days after inoculation. Here is the method: Leptosphaeria nodorum test (wheat)/protective Solvent: 25 parts by weight of N,N-dimethylacetamide Emulsifier: 0.6 part by weight of alkylaryl polyglycol ether To produce a suitable preparation of active compound, 1 part by weight of active compound combination is mixed with the stated amounts of solvent and emulsifier, and the concentrate is diluted with water to the desired concentration. To test for protective activity, young plants are sprayed with the preparation of active compound at the stated application rate. After the spray coating has dried on, the plants are sprayed with a spore suspension of Leptosphaeria nodorum. The plants remain in an incubation cabin at 20° C. and 100% relative atmospheric humidity for 48 hours. The plants are placed in a greenhouse at a temperature of about 15° C. and a relative atmospheric humidity of 80%. Evaluation is carried out 10 days after the inoculation. 0% means an efficacy which corresponds to that of the control, whereas an efficacy of 100% means that no infection is observed.

For `CO/N=C(/C(=O)OC)c1ccccc1CO/N=C(\C)c1cccc(C(F)(F)F)c1` [Ex. (I), 2-[α-{[(α-methyl-3-trifluoromethylbenzyl)imino]oxy}-o-tolyl]glyoxylic acid methyl ester O-methyl oxime], the Efficacy in % is recorded as 0% in the test with Puccinia recondita and 67% in the test with Leptosphaeria nodorum.
As to `OC(Cc1ccccc1Cl)(Cn1nc[nH]c1=S)C1(Cl)CC1` (stereo not shown) [Ex. (II)], the Efficacy in % in the test with Puccinia recondita was 43%; in the test on Leptosphaeria nodorum, 56%.
